“Also recorded” adds a separate entry of the source. Like-named read-outs stand apart in the source and are kept apart here.
Tests used:
human = settings: cited from earlier work
[1] = cited from earlier work; for Boiling Point: Table V
[2] = tested on: localization of radioactivity of [14C]NNN in bronchial epithelium; assay: alcohols by inhalation, localization of radioactivity of [14C]NNN (Table VII); type: in vivo, mice; settings: for potency as inhibitor in mice: mouse, in vivo
Description: Additional alcohols were tested for their effects on the localization of radioactivity of [^14 C]NNN in bronchial epithelium when the alcohols were administered by inhalation. For these studies, two ml of the alcohol were placed in the bottom of a 600 ml glass beaker. A wire mesh platform was constructed so that the mouse was positioned approximately three-quarter to one inch above the alcohol. The beaker was kept tightly sealed unless otherwise indicated. All mice were fasted overnight, except where noted, and sacrificed one hour after intravenous [^14 C]NNN administration. These mice were also processed for whole-body autoradiography. Although the protocols varied slightly as summarized below, these minor differences should not effect the results.
A. Exposures in beakers maintained at 50° C. (plus or minus
B. Exposure in beakers at room temperature. Beakers were
C. Beakers equilibrated with alcohols at least 20 min in […]

[3] = tested on: localization of radioactivity ([14C]NNN) in bronchial epithelium; assay: effect of substances on localization of radioactivity one hour after intravenous [14C]NNN (Table VI); type: in vivo, mice; settings: for response on the uptake of radioactivity in the bronchial epithelium / decrease in the localization of radioactivity in bronchial epithelium: solids at ambient temperature; for decrease in the localization of radioactivity in bronchial epithelium: one hour after intravenous [14C]NNN
Source text: Table VI below lists the compounds tested for their effect on the localization of radioactivity in bronchial epithelium one hour after intravenous administration of [^14 C]NNN. Unless indicated otherwise, the compounds were parenterally administered acutely at various times prior to [^14 C]NNN. In many cases only one mouse was studied for each compound. […].
Effect of substances on the localization of radioactivity in bronchial epithelium of mice one hour after intravenously receiving [^14 C] nitrosonornicotine.
For all the remaining compounds the general protocol was to administer the potential blocker some minutes prior to administration of the [^14 C]NNN. Potential blockers were given orally, intraperitoneally or by inhalation, and the [^14 C]NNN was given intravenously.

rats = settings: cited from earlier work
[4] = tested on: localization of nitrosamines (NNN, NNK) in tissues; assay: nitrosamine delocalization / blocking, general statements; settings: in vivo
[5] = tested on: localization of radioactivity ([14C]NNN) in bronchial epithelium; assay: orally administered alcohols, localization of radioactivity after intravenous [14C]NNN; type: in vivo, mice; settings: gavage 1.0 g/kg, 20 min before iv [14C]NNN
Description: For each of these alcohols, the mouse was fasted overnight, the alcohol in aqueous solution at a dose of 1.0 g/kg was administered by gavage and after twenty minutes the [^14 C]NNN was injected intravenously. All mice were sacrificed one hour after the [^14 C]NNN treatment and processed for whole-body autoradiography,as described previously.

tumor formation = settings: rat, in vivo; cited from earlier work
[6] = tested on: nitrosamine formation on epithelial membranes; tumor development; settings: cited from earlier work
[7] = tested on: localization of radioactivity ([14C]NNN) in salivary duct and bronchial epithelium and liver; assay: whole-body autoradiography of [14C]NNN localization after oral alcohols (Example 1, FIG. 1); type: in vivo, male C57BL/6J mice
Description: One hour later, the mice were anesthetized lightly with ether and frozen by immersion in dry ice/hexane. Twenty u-thick whole-body sagittal sections of the frozen mice were taken onto Scotch tape and were then processed for whole-body autoradiography by known methods. See W. Waddell et al., Drug Fate and Metabolism: Methods and Techniques, E. R. Garrett and J. L. Hirtz, Eds. […] Photometric density in areas of the developed autoradiographs was measured with an ADG Instruments photometer and a photocell with an aperture of three mm lying on the easel of a photographic enlarger. The X-ray film was placed in the enlarger and raised to produce a magnification of thirty-five times on the easel.
NNN. […] (Twenty minutes is the average time it takes for alcohols introduced by oral intubation into mice to reach the peak blood level.)
The number within each bar thereof represents the dose in g/kg of that alcohol which was administered orally twenty minutes before the [^14 C] NNN was given intraveously. The mice were frozen one hour after receiving the [^14 C] NNN. The means for each mouse were from fifteen measurements on random areas of that site (five absorbancies on each of three autoradiographs) after setting blood in each on zero.

[8] = tested on: nitrosamine ([14C]NNN) localization; assay: imidazole intraperitoneal, [14C]NNN autoradiography (Examples 4 and 5); type: in vivo, male C57BL/6J mouse; settings: ip
Description: An adult male C57BL/6J mouse was injected intraperitoneally with 0.02 ml/g body weight of a solution of imidazole in water. The imidazole solution concentration was such that 0.05 g of imidazole was delivered per kg of body weight. […] See Example 1.
Example 4 was duplicated except that the adult mouse was injected intraperitoneally with 0.02 ml/g body weight of a solution of imidazole in water, wherein the solution concentration was such that 0.25 g of imidazole was delivered per kg of body weight.

## OCCC(O)CO (stereo not shown) [1,2,4-ButanetrioI, 1,2,4-butanetriol]
human; Table V
  Toxicity: Non-toxic
[1]
  Boiling Point: 172 °C

## CC(O)CCO (stereo not shown) [1,3 Butanediol]
human; Table V
  Toxicity: Non-toxic
[1]
  Boiling Point: 207 °C

## CCCCCCO [1-hexanol]
[2]
  potency as inhibitor in mice: among the most potent inhibitors

## CC(C)[C@@H]1CC[C@@H](C)C[C@H]1O [1-menthol]
[3]
  response on the uptake of radioactivity in the bronchial epithelium: minimal response

## CCC(CC)CO [2-Ethyl butyl alcohol]
human; Table V
  Toxicity: Low-toxicity
[1]
  Boiling Point: 149 °C

## CCCCC(CC)CO (stereo not shown) [2-ethyl hexanol]
human; Table V
  Toxicity: Low-toxicity
rats; rat, in vivo, po
  Acute Oral LD50: 3.2-7.1

## CCCCCCC(C)O (stereo not shown) [2-octanol]
[1]
  boiling points: 180 °
[2]
  potency as inhibitor in mice: among the most potent inhibitors
[4]
  effectiveness against NNN or NNK: against NNK

## CCCC(C)O (stereo not shown) [2-pentanol]
[5]
  decrease in the localization of radioactivity in bronchial epithelium: significant decrease

## CC1CCCC(O)C1 (stereo not shown) [3-methylcyclohexanol]
[1]
  boiling points: 174 °
[2]; inhalation
  potency compared with cyclohexanol: even more potent than cyclohexanol
[2]
  potency as inhibitor in mice: among the most potent inhibitors

## CCCCCCC(C)O (stereo not shown) [Capryl alcohol]
human; Table V
  Toxicity: Low toxity
[1]
  Boiling Point: 178 °C

## CCCCCCCCCCCCCCCCO [Cetyl alcohol, hexadecanol]
human; Table V
  Toxicity: Non-toxic
human
  Toxicity: non-toxic
[1]
  Boiling Point: 344 °C

## OCC=Cc1ccccc1 [Cinnamyl alcohol]
[1]
  Boiling Point: 257.5 °C

## C[S+](C)[O-] [DMSO, dimethylsulfoxide]
[3]; given orally
  decrease of radioactivity in bronchial epithelium, oral vs ip: less decrease
[4]
  nitrosamine delocalization / inhibition of nitrosamine localization: found to delocalize nitrosamines

## CCCCCCCCCCCCO [Lauryl alcohol]
human; Table V
  Toxicity: Low-toxicity
[1]
  Boiling Point: 255 °C

## CN(CCCC(=O)c1cccnc1)N=O [NNK]
Tumor formation
  carcinogenicity / tumor induction: powerful environmental carcinogens

## CC(C)(O)C(C)(C)O [Pinacol]
human; Table V
  Toxicity: Low-toxicity
[1]
  Boiling Point: 174 °C

## [Se] [Selenium]
[6]
  effect on tumor development: inhibit tumor development

## CCCCCCCCCCCCCCCCCCO [Stearyl alcohol, octadecanol]
human; Table V
  Toxicity: Non-toxic
human
  Toxicity: non-toxic
[1]
  Boiling Point: 210 °C

## O=C1O[C@H]([C@@H](O)CO)C(O)=C1O [Vitamin C, ascorbic acid]
[6]
  effect on formation of nitrosamines on epithelial membranes: prevent the formation of nitrosamines

## CCC(C)CO (stereo not shown) [active amyl alcohol, 2-methyl-1-butanol]
rats; rats, oral
  Acute Oral LD50: 4.9 q/kg
[5]
  decrease in the localization of radioactivity in bronchial epithelium: significant decrease

## S=C=NCc1ccccc1 [benzyl isothiocyanate]
[4]
  nitrosamine delocalization / inhibition of nitrosamine localization: found to delocalize nitrosamines

## NCCCC(N)(C(=O)O)C(F)F (stereo not shown) [difluoromethylornithine]
[3]
  response on the uptake of radioactivity in the bronchial epithelium: minimal response

## CCCCCCCCCCCCO [dodecanol, 98%, dodecanol]
rats; rats, oral
  Acute Oral LD50: 40 q/kg

## CCO [ethanol]
[7]; 20 min before iv [14C]NNN
  localization of radioactivity in salivary duct and bronchial epithelium and in both periportal and central areas of the liver: reduced

## c1c[nH]cn1 [imidazole]
[3]
  decrease in the localization of radioactivity in bronchial epithelium: significant decrease
[8]; 0.05 g/kg
  nitrosamine delocalization: Significant nitrosamine delocalization
[8]; 0.25 g/kg
  nitrosamine delocalization: significant delocalization of nitrosamine
[4]
  nitrosamine delocalization / inhibition of nitrosamine localization: found to delocalize nitrosamines

## CC(C)CCO [isoamyl alcohol]
rats; rats, oral
  Acute Oral LD50: 1.30 q/kg
[5]
  decrease in the localization of radioactivity in bronchial epithelium: significant decrease

## CC(C)CO [isobutyl alcohol, isobutanol]
rats; rats, oral
  Acute Oral LD50: 2.46 q/kg
[5]
  decrease in the localization of radioactivity in bronchial epithelium: significant decrease

## CC(C)O [isopropyl alcohol, isopropanol]
rats; rats, oral
  Acute Oral LD50: 5.84 q/kg

## CC1CCC(C(C)C)C(O)C1 (stereo not shown) [menthol, reference compound]
human; Table V
  Toxicity: Flavor Agent
[1]
  Boiling Point: 216 °C
[4]
  nitrosamine delocalization / inhibition of nitrosamine localization: does not have the same nitrosamine blocking effect; also recorded: does not inhibit nitrosamine localization

## CC(C)(C(=O)c1cccnc1)c1cccnc1 [metyrapone]
[3]
  decrease in the localization of radioactivity in bronchial epithelium: significant decrease

## CCCCCCCCCCO [n-Decyl alcohol]
human; Table V
  Toxicity: Low-toxicity
[1]
  Boiling Point: 210 °C

## CCCCCCCCCO [n-Nonyl alcohol]
human; Table V
  Toxicity: Low-toxicity

## CCCCCCCCO [n-Octyl alcohol]
human; Table V
  Toxicity: Flavor agent
[1]
  Boiling Point: 86 °C

## c1ccc2ccccc2c1 [naphthalene]
[3]
  decrease in the localization of radioactivity in bronchial epithelium: significant decrease

## C#CCN(C)Cc1ccccc1 [parqyline]
[3]
  response on the uptake of radioactivity in the bronchial epithelium: minimal response

## O=Cc1ccc2c(c1)OCO2 [piperonal]
[3]
  decrease in the localization of radioactivity in bronchial epithelium: significant decrease

## CCCO [propyl alcohol, n-propanol]
rats; rats, oral
  Acute Oral LD50: 5.4 q/kg

## NCCCCN [putrescine]
[3]
  response on the uptake of radioactivity in the bronchial epithelium: minimal response

## c1cn[nH]c1 [pyrazole]
[3]
  response on the uptake of radioactivity in the bronchial epithelium: minimal response
[4]
  nitrosamine delocalization / inhibition of nitrosamine localization: found to delocalize nitrosamines

## CC1=C(/C=C/C(C)=C/C=C/C(C)=C/C(=O)O)C(C)(C)CCC1 [retinoic acid]
[3]
  response on the uptake of radioactivity in the bronchial epithelium: minimal response

## CC1=C(/C=C/C(C)=C/C=C/C(C)=C/CO)C(C)(C)CCC1 [retinol]
[3]
  response on the uptake of radioactivity in the bronchial epithelium: minimal response

## CCC(C)O (stereo not shown) [sec-butyl alcohol, sec-butanol]
[5]
  decrease in the localization of radioactivity in bronchial epithelium: significant decrease

## [Cl-].[Na+] [sodium chloride, reference compound]
rats; rats, oral, comparison
  LD50: about 3.75 g/Kg

## CC(C)(C)O [t-butanol]
[7]; high dosage
  localization of [14C]NNN in bronchial epithelium: almost completely abolished; also recorded: greatest inhibition

## Dipropylene glycol monomethyl
[1]
  Boiling Point: 189 °C

## Methyl cyclohexanol
[1]
  Boiling Point: 173 °C

## Vitamin A
[6]
  effect on tumor development: inhibit tumor development

## diaminopropane HCl
[3]
  response on the uptake of radioactivity in the bronchial epithelium: minimal response

## vitamin E
[6]
  effect on formation of nitrosamines on epithelial membranes: prevent the formation of nitrosamines
